Experimental data: US9161935B2 (TEVA PHARMACEUTICAL INDUSTRIES, LTD., priority 2012, dated 2015)

Tested on: Sub-Populations of Crohn's Disease Patients
Experiment: CD-LAQ-201 sub-populations of Crohn's disease patients (Example 2)
Assay type: in vivo, human
Conditions: for Remission - N (%): % / Remission - N (%): N: week 8
Experimental: This study was conducted according and with similar requirements as presented in Example 1. […] Patients, who have received anti-TNFαs in the past, tend to reflect a more severe, refractory segment of the Crohn's disease population. […] This sub-cohort analysis describes remission rates at week 8 for patients who were classified as having a predominantly inflammatory disease (based on the Montreal classifications) versus those that have a fibrostenotic or penetrating disease.

[1] = Laq 0.5 mg, Oral steroids on Baseline NO
[2] = Laq 0.5 mg, Oral steroids on Baseline YES
[3] = Laq 0.5 mg, Previous Operations NO
[4] = Laq 0.5 mg, Previous Operations YES
[5] = Laq 0.5 mg, Previous use of anti-TNFαs NO
[6] = Laq 0.5 mg, Previous use of anti-TNFαs YES
[7] = Laq 1.0 mg, Oral steroids on Baseline NO
[8] = Laq 1.0 mg, Oral steroids on Baseline YES
[9] = Laq 1.0 mg, Previous Operations NO
[10] = Laq 1.0 mg, Previous Operations YES
[11] = Laq 1.0 mg, Previous use of anti-TNFαs NO
[12] = Laq 1.0 mg, Previous use of anti-TNFαs YES

CCN(C(=O)c1c(O)c2c(Cl)cccc2n(C)c1=O)c1ccccc1 [laquinimod]
effect on remission at week 8 with or without previous anti-TNFαs (0.5 mg): remains robust on both sub-populations | effect on remission at week 8 in fibrostenotic or penetrating disease (0.5 mg or 1 mg): no effect | effectiveness in anti-TNF refractory patients (FIG. 1) (0.5 mg/day laquinimod): robustly effective | effectiveness in anti-TNF refractory patients (FIG. 1) (1 mg/day laquinimod): effective relative to placebo | CDAI Change from Baseline - Mean ± SD (Laq 0.5 mg, Fibrostenotic): −9.3 | Responders70 - N (%): % (Laq 0.5 mg, Fibrostenotic): 42.9% | Responders70 - N (%): N (Laq 0.5 mg, Fibrostenotic): 3 | Responders100 - N (%): % (Laq 0.5 mg, Fibrostenotic): 28.6% | Responders100 - N (%): N (Laq 0.5 mg, Fibrostenotic): 2 | Remission - N (%): % (Laq 0.5 mg, Fibrostenotic): 14.3% | Remission - N (%): N (Laq 0.5 mg, Fibrostenotic): 1 | CDAI Change from Baseline - Mean ± SD (Laq 0.5 mg, Inflammatory): −125.1 | Responders70 - N (%): % (Laq 0.5 mg, Inflammatory): 68.2% | Responders70 - N (%): N (Laq 0.5 mg, Inflammatory): 15 | Responders100 - N (%): % (Laq 0.5 mg, Inflammatory): 63.6% | Responders100 - N (%): N (Laq 0.5 mg, Inflammatory): 14 | Remission - N (%): % (Laq 0.5 mg, Inflammatory): about 60% | Remission - N (%): N (Laq 0.5 mg, Inflammatory): 13 | Remission - N (%): % (Laq 0.5 mg, Inflammatory, listed as Laq): 59.1% | CDAI Change from Baseline - Mean ± SD [1]: −85.3 | Responders70 - N (%): % [1]: 57.9% | Responders70 - N (%): N [1]: 11 | Responders100 - N (%): % [1]: 47.4% | Responders100 - N (%): N [1]: 9 | Remission - N (%): % [1]: about 40% | Remission - N (%): N [1]: 8 | Remission - N (%): % (Laq 0.5 mg, Oral steroids on Baseline NO, listed as Laq): 42.1% | CDAI Change from Baseline - Mean ± SD [2]: −119.8 | Responders70 - N (%): % [2]: 70.0% | Responders70 - N (%): N [2]: 7 | Responders100 - N (%): % [2]: 70.0% | Responders100 - N (%): N [2]: 7 | Remission - N (%): % [2]: approximately 60% | Remission - N (%): N [2]: 6 | Remission - N (%): % (Laq 0.5 mg, Oral steroids on Baseline YES, listed as Laq): 60.0% | CDAI Change from Baseline - Mean ± SD [3]: −118.1 | Responders70 - N (%): % [3]: 62.5% | Responders70 - N (%): N [3]: 15 | Responders100 - N (%): % [3]: 58.3% | Responders100 - N (%): N [3]: 14 | Remission - N (%): % [3]: higher than 50% | Remission - N (%): N [3]: 13 | Remission - N (%): % (Laq 0.5 mg, Previous Operations NO, listed as Laq): 54.2% | CDAI Change from Baseline - Mean ± SD [4]: 3.2 | Responders70 - N (%): % [4]: 60.0% | Responders70 - N (%): N [4]: 3 | Responders100 - N (%): % [4]: 40.0% | Responders100 - N (%): N [4]: 2 | Remission - N (%): % [4]: 20.0% | Remission - N (%): N [4]: 1 | CDAI Change from Baseline - Mean ± SD [5]: −88.2 | Responders70 - N (%): % [5]: 63.6% | Responders70 - N (%): N [5]: 7 | Responders100 - N (%): % [5]: 54.5% | Responders100 - N (%): N [5]: 6 | Remission - N (%): % [5]: 54.5% | Remission - N (%): N [5]: 6 | CDAI Change from Baseline - Mean ± SD [6]: −102.7 | Responders70 - N (%): % [6]: 61.1% | Responders70 - N (%): N [6]: 11 | Responders100 - N (%): % [6]: 55.6% | Responders100 - N (%): N [6]: 10 | Remission - N (%): % [6]: 44.4% | Remission - N (%): N [6]: 8 | CDAI Change from Baseline - Mean ± SD (Laq 1.0 mg, Fibrostenotic): −65.8 | Responders70 - N (%): % (Laq 1.0 mg, Fibrostenotic): 41.7% | Responders70 - N (%): N (Laq 1.0 mg, Fibrostenotic): 5 | Responders100 - N (%): % (Laq 1.0 mg, Fibrostenotic): 41.7% | Responders100 - N (%): N (Laq 1.0 mg, Fibrostenotic): 5 | Remission - N (%): % (Laq 1.0 mg, Fibrostenotic): 16.7% | Remission - N (%): N (Laq 1.0 mg, Fibrostenotic): 2 | CDAI Change from Baseline - Mean ± SD (Laq 1.0 mg, Inflammatory): −76.7 | Responders70 - N (%): % (Laq 1.0 mg, Inflammatory): 61.1% | Responders70 - N (%): N (Laq 1.0 mg, Inflammatory): 11 | Responders100 - N (%): % (Laq 1.0 mg, Inflammatory): 38.9% | Responders100 - N (%): N (Laq 1.0 mg, Inflammatory): 7 | Remission - N (%): % (Laq 1.0 mg, Inflammatory): 33.3% | Remission - N (%): N (Laq 1.0 mg, Inflammatory): 6 | CDAI Change from Baseline - Mean ± SD [7]: −59.4 | Responders70 - N (%): % [7]: 50.0% | Responders70 - N (%): N [7]: 9 | Responders100 - N (%): % [7]: 33.3% | Responders100 - N (%): N [7]: 6 | Remission - N (%): % [7]: 22.2% | Remission - N (%): N [7]: 4 | CDAI Change from Baseline - Mean ± SD [8]: −93.5 | Responders70 - N (%): % [8]: 58.3% | Responders70 - N (%): N [8]: 7 | Responders100 - N (%): % [8]: 50.0% | Responders100 - N (%): N [8]: 6 | Remission - N (%): % [8]: 33.3% | Remission - N (%): N [8]: 4 | CDAI Change from Baseline - Mean ± SD [9]: −77.9 | Responders70 - N (%): % [9]: 55.6% | Responders70 - N (%): N [9]: 10 | Responders100 - N (%): % [9]: 38.9% | Responders100 - N (%): N [9]: 7 | Remission - N (%): % [9]: 33.3% | Remission - N (%): N [9]: 6 | CDAI Change from Baseline - Mean ± SD [10]: −66.0 | Responders70 - N (%): % [10]: 50.0% | Responders70 - N (%): N [10]: 6 | Responders100 - N (%): % [10]: 41.7% | Responders100 - N (%): N [10]: 5 | Remission - N (%): % [10]: 16.7% | Remission - N (%): N [10]: 2 | CDAI Change from Baseline - Mean ± SD [11]: −38.5 | Responders70 - N (%): % [11]: 27.3% | Responders70 - N (%): N [11]: 3 | Responders100 - N (%): % [11]: 27.3% | Responders100 - N (%): N [11]: 3 | Remission - N (%): % [11]: 18.2% | Remission - N (%): N [11]: 2 | CDAI Change from Baseline - Mean ± SD [12]: −36.8 | Responders70 - N (%): % [12]: 27.8% | Responders70 - N (%): N [12]: 5 | Responders100 - N (%): % [12]: 27.8%
